Data from patent publication US20150031572A1, “MEANS AND METHODS FOR ASSESSING NEURONAL TOXICITY” (priority 2012, published 2015).
Where a name gives a salt, the structure may show the parent alone. Marks after values point to notes of the source that are not given here.

Experiment: Plasma metabolite profiling (GC-MS, LC-MS, SPE-LC-MS) of rats dosed once daily over 28 days; treatment ratios versus untreated control
Type: in vivo, rat
Procedure, shortened: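 Male and female rats (5/sex/group) dosed once daily for 28 days; fasted anaesthetized animals bled retro-orbitally (EDTA plasma) on days 7, 14, 28, stored −80 °C under N2. Polar and lipid fractions profiled by GC-MS (derivatized), LC-MS/MRM; steroids by online SPE-LC-MS. Pool-normalized data; treatment ratios vs sex-matched controls, Welch test p-values.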

[1] = plasma, female rats, day 14, high dose, Table 6d
[2] = plasma, female rats, day 28, high dose, Table 4a
[3] = plasma, female rats, day 28, high dose, Table 4b
[4] = plasma, female rats, day 28, high dose, Table 6c
[5] = plasma, female rats, day 28, high dose, Table 6d
[6] = plasma, male rats, day 7, high dose, Table 3a
[7] = plasma, male rats, day 7, high dose, Table 3b
[8] = plasma, male rats, day 14, high dose, Table 3a
[9] = plasma, male rats, day 14, high dose, Table 3b
[10] = plasma, male rats, day 28, high dose, Table 3a
[11] = plasma, male rats, day 28, high dose, Table 3b

Structure (SMILES): O=C1Cc2cc(CCN3CCN(c4nsc5ccccc45)CC3)c(Cl)cc2N1 [Ziprasidone hydrochloride]
- TAG No 059, ratio versus control (plasma, female rats, day 14, high dose, Table 6c): 0.84
- 4-Hydroxyphenylpyruvate, ratio versus control [1]: 0.21*
- Glycine, ratio versus control [1]: 0.86*
- Lactate, ratio versus control [1]: 0.66
- Lysophosphatidylcholine (C16:0), ratio versus control [1]: 1
- Uric acid, ratio versus control [1]: 0.5*
- Ceramide (d18:1,C24:1), ratio versus control [2]: 1.2
- Docosapentaenoic acid (C22:cis[7,10,13,16,19]5), ratio versus control [2]: 1.54*
- Elaidic acid (C18:trans[9]1), ratio versus control [2]: 1.18
- Galactose, lipid fraction, ratio versus control [2]: 1.22
- Myristic acid (C14:0), ratio versus control [2]: 1.18
- Phosphatidylcholine (C16:1,C18:2), ratio versus control [2]: 1.5*
- Progesterone, ratio versus control [2]: 2.41*
- TAG No 07, ratio versus control [2]: 1.02
- myo-Inositol, lipid fraction, ratio versus control [2]: 1.2
- Creatinine, ratio versus control [3]: 0.89*
- Glutamate, ratio versus control [3]: 0.76*
- Glycine, ratio versus control [3]: 0.91
- Lactate, ratio versus control [3]: 0.62*
- Myristic acid (C14:0), ratio versus control [3]: 1.18
- Normetanephrine, ratio versus control [3]: 0.95
- Phosphocreatine, ratio versus control [3]: 0.47
- Serotonin (5-HT), ratio versus control [3]: 1.37
- Uric acid, ratio versus control [3]: 0.73*
- Docosahexaenoic acid (C22:cis[4,7,10,13,16,19]6), ratio versus control [4]: 1.26
- Docosapentaenoic acid (C22:cis[7,10,13,16,19]5), ratio versus control [4]: 1.54*
- Galactose, lipid fraction, ratio versus control [4]: 1.22
- Palmitic acid (C16:0), ratio versus control [4]: 1.2*
- Phosphatidylcholine (C16:0,C20:5), ratio versus control [4]: 1.17*
- Phosphatidylcholine (C16:1,C18:2), ratio versus control [4]: 1.5*
- Phosphatidylcholine No 02, ratio versus control [4]: 1.2*
- TAG (C16:0,C16:1), ratio versus control [4]: 1.75*
- TAG (C16:0,C18:1,C18:3), ratio versus control [4]: 1.3*
- TAG (C16:0,C18:2), ratio versus control [4]: 1.38*
- TAG (C18:2,C18:3), ratio versus control [4]: 1.46*
- TAG (C18:3,C18:2,C18:1), ratio versus control [4]: 1.44*
- TAG No 059, ratio versus control [4]: 1.58*
- 4-Hydroxyphenylpyruvate, ratio versus control [5]: 1.02
- Glycine, ratio versus control [5]: 0.91
- Lactate, ratio versus control [5]: 0.62*
- Lysophosphatidylcholine (C16:0), ratio versus control [5]: 0.98*
- Uric acid, ratio versus control [5]: 0.73*
- 3-Methoxytyrosine, ratio versus control [6]: 1.12
- Arginine, ratio versus control [6]: 1.22*
- Tryptophan, ratio versus control [6]: 1.1
- Glycine, ratio versus control [7]: 0.82*
- Threonic acid, ratio versus control [7]: 0.66*
- Arginine, ratio versus control [8]: 1.11*
- myo-Inositol-2-phosphate, lipid fraction, ratio versus control [8]: 1.44*
- Glycine, ratio versus control [9]: 0.95
- Threonic acid, ratio versus control [9]: 0.52*
- 3-Methoxytyrosine, ratio versus control [10]: 1.47*
- Arginine, ratio versus control [10]: 0.98
- Tryptophan, ratio versus control [10]: 1.18*
- myo-Inositol-2-phosphate, lipid fraction, ratio versus control [10]: 1.63*
- Glycine, ratio versus control [11]: 0.86*
- Threonic acid, ratio versus control [11]: 0.63*
- 3-Methoxytyrosine, ratio versus control (rat, in vivo): 1.33*
- 4-Hydroxysphinganine (t18:0, Phytosphingosine), total, ratio versus control (rat, in vivo): 1.16*
- Palmitic acid (C16:0), ratio versus control (rat, in vivo): 1.12*
- Phosphatidylcholine (C16:0,C16:0), ratio versus control (rat, in vivo): 1.32*
- Phosphatidylcholine (C16:0,C20:5), ratio versus control (rat, in vivo): 1.05*
- Phosphatidylcholine (C16:0,C22:6), ratio versus control (rat, in vivo): 1.15*
- Phosphatidylcholine (C16:1,C18:2), ratio versus control (rat, in vivo): 1.41*
- TAG (C18:2,C18:2), ratio versus control (rat, in vivo): 1.41*
- Tryptophan, ratio versus control (rat, in vivo): 1.16*
- myo-Inositol, lipid fraction, ratio versus control (rat, in vivo): 1.41*
- myo-Inositol-2-phosphate, lipid fraction, ratio versus control (rat, in vivo): 1.41*
